{"source": "patent US20030186980A1", "about": "“Anthelmintic agents for preventing parasitic infections in humans and animals III” (priority 2000, published 2003)", "key": {"[1]": {"system": "Schistosoma mansoni cercariae", "assay": "Activity against Schistosoma mansoni cercariae (survival/mobility observed with a stereomagnifier)", "parameters": "key: no effect during the entire test period of 120 minutes; 1: weak effect (the cercariae have a strongly reduced mobility); 2: good effect (the cercariae are only slightly mobile and bent); 3: full effect (the cercariae are completely immobile)", "conditions": "500 μl/l final concentration of active compound; PEG300/aquarium water; test period of 120 minutes; about 100 to 150 cercariae per batch", "experimental": "[500 μl/l final concentration of the active compounds] Snails (Biomphalaria glabrata) were infected by incubating each of them with 8 miracidia in 10 ml of water overnight. About 6 to 9 weeks after the infection, cercariae were obtained by irradiating the snails, which had been kept in darkness, with light, followed by collection of the swarming cercariae within 2 hours.\nSuch an amount of cercariae-containing water (1 or 2 ml, see below) was added to the test batches that each batch contained about 100 to 150 cercariae.\n5 μl of active compound were mixed thoroughly with 25 μl of PEG300. 9 ml of aquarium water was then added, and the batch was shaken vigorously. After (delayed) addition of 1 ml of cercariae suspension, survival of the cercariae was in each case observed immediately using a stereomagnifier."}, "[2]": {"system": "cercariae of Schistosoma mansoni", "conditions": "topical; Salafsky et al. 1998; cited from earlier work"}, "[3]": {"system": "cercariae of Schistosoma mansoni", "conditions": "topical, monkeys; Bruce et al. 1992; cited from earlier work"}, "[4]": {"system": "cercariae of Schistosoma mansoni", "conditions": "Fripp and Armstrong 1973; cited from earlier work"}}}
{"smiles": "CCC(C)N(C)C(=O)N1CC(C)OC(C)C1", "note": "(stereo not shown)", "values": [{"measurement": "activity rating against Schistosoma mansoni cercariae", "setting": "[1]", "value": 1}]}
{"smiles": "CCN(CC)C(=O)c1cccc(C)c1", "note": "[N,N-Diethyl-m-toluamide (DEET), N,N-Diethyl-m-toluamide]", "values": [{"measurement": "action against cercariae of Schistosoma mansoni", "setting": "[2]", "value": "acts against cercariae"}]}
{"smiles": "O=C(Nc1ccc([N+](=O)[O-])cc1Cl)c1cc(Cl)ccc1O", "note": "[Niclosamide]", "values": [{"measurement": "action against the penetration of cercariae", "setting": "[3]", "value": "acts against the penetration of cercariae"}]}
{"smiles": "Oc1c(Cl)cc(Cl)c(Cl)c1Cc1c(O)c(Cl)cc(Cl)c1Cl", "note": "[hexachlorophene]", "values": [{"measurement": "effect on cercariae of Schistosoma mansoni", "setting": "[4]", "value": "lethal effect"}]}
